# Reference: US4218477A, “Primary aminoacylanilides, methods of making the same and use as antiarrhythmic drugs” (priority 1976, dated 1980)
# Read-outs that look alike come from different tables or passages of the source.
# Columns and labels:
# [1] = system: ventricular fibrillation; experiment: Protection against chloroform induced ventricular fibrillation in mice, oral (Table I); format: in vivo, female Swiss albino mice (HAM/ICR)
# Protocol: (§1) The experiments on mice were performed according to a modification of the method described by J. W. Lawson, "Antiarrhythmic activity of some isoquinoline derivatives determined by a rapid screening procedure in the mouse", J. Pharm. Exp. Therap. Vol. 160, pp. 22-31 (1968). This method is based upon the observation that when an unanesthetized, untreated mouse is exposed to chloroform vapor its respiration soon ceases and at that time both electrocardiographic and visual inspection reveal that the cardiac ventricles are fibrillating. If the mouse is treated appropriately with known antiarrhythmic agents prior to exposure to chloroform, the respiratory failure is not accompanied by ventricular fibrillation.
# [2] = system: mice; experiment: Ataxia just before CHCl3 challenge in mice, oral (Table I); format: in vivo, female Swiss albino mice (HAM/ICR)
# Protocol: as §1
# [3] = system: ventricular arrhythmias; format: in vivo, dogs; conditions: for Complete Clearing, Duration: return of 50% of suppressed abnormal beats; for Complete Clearing, Onset: abnormal ventricular beats less than 5% of total beats
# Protocol: Vol. 1, pp. 1318-1328 (1950). […] The electrocardiographic, cardiovascular and other drug effects were monitored.
# Table II summarizes the results of oral administration:
# Dogs #215 and #220 given 50 mg/kg dose at 0 mins and 100 mg/kg dose at 24
# The electrocardiographic, cardiovascular and other drug effects were monitored.
# [4] = system: ventricular arrhythmias; experiment: animal or person; conditions: for minimal effective dose: Canis lupus familiaris
# Protocol: Tests on dogs with the compound 2-amino-2',6'-propionoxylidide were conducted according to a modification of the method described by A. S. Harris in "Delayed Development of Ventricular Ectopic Rhythms Following Experimental Coronary Occlusions", Circ. Vol. 1, pp. 1318-1328 (1950). In this method the dogs were anesthetized, the heart was exposed, and the anterior descending branch of the left coronary artery was ligated in two stages. The thorax was closed and the dog was allowed to recover from the anesthesia. […] B. B. Clark and J. R. Cummings, "Arrhythmias Following Experimental Coronary Occlusion and Their Response to Drugs", Annals New York Academy of Sciences, Vol. 65, pp. 543-551 (1956). […] The electrocardiographic, cardiovascular and other drug effects were monitored.
# The dosage schedule was: 1st hr.: 15 mg/kg/hr; 2nd hr.: 30 mg/kg/hr; 3rd hr.: 60 mg/kg/hr. Infusions were stopped at the first sign of toxicity other than emesis.
# The compound 3-amino-2',6'-butyroxylidide was also tested on dogs, according to a modification of the method of Harris as previously described. As in the previously described tests, unanesthetized dogs were supported in canvas slings and were treated either intravenously or orally with doses of 3-amino-2',6'-butyroxylidide. The electrocardiographic, cardiovascular and other drug effects were monitored.
# [5] = system: chloroform induced fibrillation; experiment: Protection against chloroform induced fibrillation in mice, subcutaneous, potency relative to lidocaine (Table IV); format: in vivo; conditions: s.c., 20 min, statistical mean (confidence limits)
# Protocol: as §1
# The procedure used was a modification of the method previously described. The modification involved using a standard time of 20 minutes for each test run and four different doses of the same drug. Route of administration was subcutaneous.
# [6] = system: frog sciatic nerve; experiment: Local anesthetic effect in vitro on the frog sciatic nerve; conditions: 20 mM, exposure for 96 min
# [7] = system: cardiac arrhythmias; experiment: Antiarrhythmic effect in mice, oral (summary statement); format: in vivo
# Protocol: as §1
# [8] = system: mice; conditions: mouse, in vivo, po, 1440 min
# [9] = system: chloroform-induced arrhythmias; experiment: animal or person; conditions: Mus musculus
# [10] = Acute oral toxicity in mice (24 Hr. mortality); conditions: mouse, in vivo, po
# [11] = oral, cumulative dose 100 mg/kg as HCl
# [12] = oral, cumulative dose 300 mg/kg as HCl
smiles,measurement,setting,value
"Cc1cccc(C)c1NC(=O)C(C)N (racemic) [2-amino-2',6'-propionoxylidide]",Proportion of mice protected against fibrillation at LD0.1,"[1]; dose LD0.1, drug given 20 min before CHCl3 challenge",9/10
same,Proportion of mice protected against fibrillation at LD0.1,"[1]; dose LD0.1, drug given 40 min before CHCl3 challenge",9/10
same,Proportion of mice protected against fibrillation at LD0.1,"[1]; dose LD0.1, drug given 80 min before CHCl3 challenge",10/10
same,Proportion of mice protected against fibrillation at LD0.1,"[1]; dose LD0.1, drug given 160 min before CHCl3 challenge",9/10
same,Proportion of mice having ataxia just before CHCl3 challenge,"[2]; dose LD0.1, 20 min",10/10
same,Proportion of mice having ataxia just before CHCl3 challenge,"[2]; dose LD0.1, 40 min",10/10
same,Proportion of mice having ataxia just before CHCl3 challenge,"[2]; dose LD0.1, 80 min",8/10
same,Proportion of mice having ataxia just before CHCl3 challenge,"[2]; dose LD0.1, 160 min",5/10
same,adverse reactions,"[3]; dog, in vivo, po",unaccompanied by any discernible adverse reactions
same,"Overt Toxicity: Convulsions, Onset","[3]; dog, in vivo, po, 50 mg/kg",None
same,Overt Toxicity: Emesis,"[3]; dog, in vivo, po, 50 mg/kg",None
same,Overt Toxicity: Nystagmus,"[3]; dog, in vivo, po, 50 mg/kg",None
same,Overt Toxicity: Other,"[3]; dog, in vivo, po, 50 mg/kg",None
same,Overt Toxicity: Tremors,"[3]; dog, in vivo, po, 50 mg/kg",None
same,"Overt Toxicity: Convulsions, Onset","[3]; dog, in vivo, po, 100 mg/kg",None
same,Overt Toxicity: Emesis,"[3]; dog, in vivo, po, 100 mg/kg",None
same,Overt Toxicity: Nystagmus,"[3]; dog, in vivo, po, 100 mg/kg",None
same,Overt Toxicity: Other,"[3]; dog, in vivo, po, 100 mg/kg",None
same,Overt Toxicity: Tremors,"[3]; dog, in vivo, po, 100 mg/kg",None
same,"Overt Toxicity: Convulsions, Onset","[3]; dog, in vivo, po, 150 mg/kg",None
same,Overt Toxicity: Nystagmus,"[3]; dog, in vivo, po, 150 mg/kg",None
same,Overt Toxicity: Other,"[3]; dog, in vivo, po, 150 mg/kg",None
same,Overt Toxicity: Tremors,"[3]; dog, in vivo, po, 150 mg/kg",None
same,"Overt Toxicity: Convulsions, Duration","[3]; dog, in vivo, po, 200 mg/kg",> 3 min
same,Overt Toxicity: Nystagmus,"[3]; dog, in vivo, po, 200 mg/kg",None
same,Overt Toxicity: Other,"[3]; dog, in vivo, po, 200 mg/kg",None
same,"Overt Toxicity: Convulsions, Duration","[3]; dog, in vivo, po, 300 mg/kg",17 min
same,"Overt Toxicity: Convulsions, Onset","[3]; dog, in vivo, po, 300 mg/kg",None
same,Overt Toxicity: Emesis,"[3]; dog, in vivo, po, 300 mg/kg",None
same,Overt Toxicity: Nystagmus,"[3]; dog, in vivo, po, 300 mg/kg",None
same,Overt Toxicity: Other,"[3]; dog, in vivo, po, 300 mg/kg",None
same,Overt Toxicity: Tremors,"[3]; dog, in vivo, po, 300 mg/kg",None
same,suppression of the ventricular arrhythmias,"[3]; oral doses, dogs",distinct suppression of the ventricular arrhythmias
same,"Partial Clearing, Onset","[3]; oral, cumulative dose 50 mg/kg as HCl, 50-95% reduction of abnormal ventricular beats",None
same,"Complete Clearing, Duration","[3]; oral, cumulative dose 50 mg/kg as HCl, *** followed by off and on bursts",195 min
same,"Complete Clearing, Onset",[3]; [11],120 min
same,"Complete Clearing, Duration",[3]; [11],45 min
same,"Complete Clearing, Duration","[3]; oral, cumulative dose 200 mg/kg as HCl, *** followed by off and on bursts",30 min
same,"Complete Clearing, Onset",[3]; [12],30 min
same,"Complete Clearing, Duration",[3]; [12],> 180 min
same,minimal effective dose,"[4]; iv, read-out: Antiarrhythmic doses (cumul.)",75 mg/kg
same,minimal effective dose,"[4]; iv, read-out: cumulative dose providing antiarrhythmic effects",75 mg/kg
same,adverse reactions,"[4]; dog, in vivo, iv",unaccompanied by any discernible adverse reactions
same,Number of dogs showing antiarrhythmic effect,"[4]; i.v. infusion 15, 30, 60 mg/kg/hr, dogs tested: lidocaine 2, test compound 1, abnormal beats less than 5% of total",1
same,Toxic doses (cumul.),"[4]; i.v. infusion, stopped at first sign of toxicity other than emesis, one value per dog",81 mg/kg
same,Duration of Antiarrhythmic effect,"[4]; i.v. infusion, return of 50% of suppressed abnormal ventricular beats, one value per dog",71 min
same,suppression of the ventricular arrhythmias,"[4]; intravenous doses, dogs",distinct suppression of the ventricular arrhythmias
same,Relative Potency (ED50 test compound/ED50 lidocaine),[5],0.33 (0.20 - 0.54)
same,block of the action potential of the nerve,[6],does not block the action potential at all
same,maximum oral dosage providing antiarrhythmic effects,[7],about 380 mg/kg
same,24 Hr. Mortality LD0.1,[8],382 mg/kg
same,ED50,[9],172 mg/kg
same,LD50 at 24 h,[10],529 mg/kg
